Series [1] deals with 72 kDa type IV collagenase (Homo sapiens, UniProt P08253).
The target of series [2] is Matrix metalloproteinase-9 (Homo sapiens, UniProt P14780).
Series [3] in a line: (§1) Volume of distribution in rat at 0.5 mg/kg, iv. In kind it is ADME, organism-based. On the set-up: dose 0.5 mg/kg, route intravenous. The note with it: in vivo, read-out: Vss.
Series [4] is described as follows: AUC in rat at 0.5 mg/kg, iv. Type of series: ADME, organism-based. More on the design: dose 0.5 mg/kg, route intravenous. As to conditions: plasma.
The nature of series [5]: Metabolic stability in human liver microsomes. In kind it is ADME, Microsome.
The nature of series [6]: (§2) Apparent elimination half life in rat at 0.5 mg/kg, iv. In kind it is ADME, organism-based. More on the design: dose 0.5 mg/kg, route intravenous. As to conditions: in vivo.
Series [7] in a line: Clearance in rat at 0.5 mg/kg, iv. On the set-up: dose 0.5 mg/kg, route intravenous. The note with it: in vivo. In kind it is ADME, organism-based.
A short description of series [8]: Initial concentration in rat at 0.5 mg/kg, iv. In kind it is ADME, organism-based. More on the design: dose 0.5 mg/kg, route intravenous. The note with it: in vivo.
Series [9] concerns Rattus norvegicus. The series is described as §1. In kind it is ADME, organism-based. On the set-up: dose 0.5 mg/kg, route intravenous. As to conditions: in vivo.
For series [10], the system named is Rattus norvegicus. The series is described as §2. Type of series: ADME, organism-based. On the set-up: dose 0.5 mg/kg, route intravenous. The note with it: in vivo.
The target in a further series is T1, Interstitial collagenase (Homo sapiens, UniProt P03956).
T1 sequence (P03956 whole entry): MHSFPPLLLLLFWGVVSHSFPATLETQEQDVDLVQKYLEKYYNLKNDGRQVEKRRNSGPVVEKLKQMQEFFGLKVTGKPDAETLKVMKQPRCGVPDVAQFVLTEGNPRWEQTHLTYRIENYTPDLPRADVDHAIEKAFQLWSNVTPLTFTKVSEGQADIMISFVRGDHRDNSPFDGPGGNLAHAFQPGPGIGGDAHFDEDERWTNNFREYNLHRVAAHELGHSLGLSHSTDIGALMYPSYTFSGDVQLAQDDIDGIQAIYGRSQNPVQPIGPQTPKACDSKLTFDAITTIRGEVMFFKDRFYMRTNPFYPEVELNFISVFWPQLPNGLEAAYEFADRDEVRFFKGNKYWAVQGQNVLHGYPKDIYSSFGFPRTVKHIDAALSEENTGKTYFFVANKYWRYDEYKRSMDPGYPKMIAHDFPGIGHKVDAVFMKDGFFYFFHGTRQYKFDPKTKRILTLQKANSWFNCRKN
Briefly: Inhibition of MMP1.

For a further series, the target named is Collagenase 3 (Homo sapiens, UniProt P45452).
A further series concerns the target Stromelysin-1 (Homo sapiens, UniProt P08254). Briefly: Inhibition of MMP3.

Sequence of Matrix metalloproteinase-9 (P14780 whole entry): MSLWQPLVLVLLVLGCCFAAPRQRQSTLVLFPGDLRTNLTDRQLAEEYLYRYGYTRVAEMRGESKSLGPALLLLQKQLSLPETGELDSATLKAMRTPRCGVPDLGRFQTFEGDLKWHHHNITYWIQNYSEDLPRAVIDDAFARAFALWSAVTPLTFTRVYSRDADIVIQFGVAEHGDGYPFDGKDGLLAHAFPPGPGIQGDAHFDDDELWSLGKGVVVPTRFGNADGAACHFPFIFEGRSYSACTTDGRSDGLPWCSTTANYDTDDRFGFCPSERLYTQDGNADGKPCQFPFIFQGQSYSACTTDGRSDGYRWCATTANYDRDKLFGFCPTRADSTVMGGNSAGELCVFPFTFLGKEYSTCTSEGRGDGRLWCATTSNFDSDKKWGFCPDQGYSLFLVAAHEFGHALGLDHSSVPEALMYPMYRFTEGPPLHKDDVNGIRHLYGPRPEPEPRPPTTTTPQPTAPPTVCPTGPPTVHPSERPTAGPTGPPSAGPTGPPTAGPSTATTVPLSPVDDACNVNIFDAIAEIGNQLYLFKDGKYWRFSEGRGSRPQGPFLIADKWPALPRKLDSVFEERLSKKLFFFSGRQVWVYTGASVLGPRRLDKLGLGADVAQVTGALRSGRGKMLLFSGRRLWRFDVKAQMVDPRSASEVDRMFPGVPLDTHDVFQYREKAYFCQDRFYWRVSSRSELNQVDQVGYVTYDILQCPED
Sequence of 72 kDa type IV collagenase (P08253 whole entry): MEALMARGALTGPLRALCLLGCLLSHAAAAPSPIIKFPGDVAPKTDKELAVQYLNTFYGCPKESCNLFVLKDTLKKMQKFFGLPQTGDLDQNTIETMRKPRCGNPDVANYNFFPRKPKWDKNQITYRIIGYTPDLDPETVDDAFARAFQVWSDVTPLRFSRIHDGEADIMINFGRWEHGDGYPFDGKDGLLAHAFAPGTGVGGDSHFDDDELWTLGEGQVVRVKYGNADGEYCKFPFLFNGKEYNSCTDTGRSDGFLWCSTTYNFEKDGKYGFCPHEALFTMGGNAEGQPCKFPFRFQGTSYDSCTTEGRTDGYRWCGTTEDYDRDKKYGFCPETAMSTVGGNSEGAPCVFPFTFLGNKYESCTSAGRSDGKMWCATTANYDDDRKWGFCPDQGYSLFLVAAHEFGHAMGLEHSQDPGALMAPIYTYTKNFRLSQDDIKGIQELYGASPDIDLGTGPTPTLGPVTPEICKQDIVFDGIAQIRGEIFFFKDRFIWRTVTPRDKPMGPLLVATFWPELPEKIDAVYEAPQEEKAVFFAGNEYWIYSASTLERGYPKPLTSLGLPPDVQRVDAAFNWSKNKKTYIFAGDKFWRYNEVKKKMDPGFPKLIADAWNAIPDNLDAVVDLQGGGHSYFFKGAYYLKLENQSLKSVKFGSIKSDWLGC
Sequence of Stromelysin-1 (P08254 whole entry): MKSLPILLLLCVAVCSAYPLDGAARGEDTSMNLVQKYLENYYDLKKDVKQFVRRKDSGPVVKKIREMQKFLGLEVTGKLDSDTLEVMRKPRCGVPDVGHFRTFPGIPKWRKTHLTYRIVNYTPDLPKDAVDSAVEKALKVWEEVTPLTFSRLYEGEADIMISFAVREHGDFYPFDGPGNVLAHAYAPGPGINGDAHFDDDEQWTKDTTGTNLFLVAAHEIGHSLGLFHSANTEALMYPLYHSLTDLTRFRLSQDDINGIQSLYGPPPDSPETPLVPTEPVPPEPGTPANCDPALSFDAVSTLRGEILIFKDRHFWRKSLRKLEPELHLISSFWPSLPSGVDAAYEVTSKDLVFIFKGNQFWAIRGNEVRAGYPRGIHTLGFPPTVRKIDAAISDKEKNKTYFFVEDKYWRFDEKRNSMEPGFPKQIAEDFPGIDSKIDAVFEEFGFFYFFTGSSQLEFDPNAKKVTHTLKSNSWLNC

`CCc1ccc(C#Cc2ccc(SC(CCN3C(=O)c4ccccc4C3=O)C(=O)O)cc2)cc1` (centres undefined) registered an IC50 in series [1] of 1.3 nM. That is a single-digit nanomolar value. As for `O=C(O)C(CN1C(=O)c2ccccc2C1=O)S(=O)(=O)c1ccc(-c2ccc(Cl)cc2)cc1` (centres undefined), the IC50 is 556 nM in series [1] and 1050 nM in [2]. With `COc1ccc(C(=O)Cc2ccc(SC(CCN3C(=O)c4ccccc4C3=O)C(=O)O)cc2)cc1` (centres undefined), inhibition in series [1] was half-maximal at 54 nM (IC50).

For the molecule `O=C(NO)C(CCN1C(=O)c2ccccc2C1=O)S(=O)(=O)c1ccc(-c2ccc(Cl)cc2)cc1` (centres undefined), in [3], the Vd is 0.1 L/kg. The molecule also gave an AUC in [4] of 2.94 µg·h/mL. For the same molecule, the half-life is 12 min in [5] and 58.8 min in [6]. In series [7], this molecule registered a clearance of 0.174 L/h/kg. Moreover, the IC50 in series [1] amounted to 0.62 nM; in series [2] it was 1.4 nM. For the same molecule, the C0 in [8] is 13.9 µM.

As to `CC(C)c1ccc(-c2ccc(S(=O)(=O)C(CCN3C(=O)c4ccccc4C3=O)C(=O)O)cc2)cc1` (centres undefined), the IC50 in series [1] was determined as 0.98 nM. Regarding `COc1cccc(C#Cc2ccc(SC(CCN3C(=O)c4ccccc4C3=O)C(=O)O)cc2)c1` (centres undefined), 4 nM corresponded to half-maximal inhibition in series [1] (IC50).

Consider `COc1ccc(-c2ccc(S(=O)(=O)C(CCN3C(=O)c4ccccc4C3=O)C(=O)O)cc2)cc1` (centres undefined), for which, in [1], the IC50 was found to be 0.84 nM. Molecule `O=C(O)C(CCN1C(=O)c2ccccc2C1=O)S(=O)(=O)c1ccc(-c2ccc(Cl)cc2)cc1` (centres undefined) displayed a Vss in the series with Rattus norvegicus [9] of 0.4 L/kg. The molecule further showed an AUC in [4] of 18.2 µg·h/mL. The half-life in series [5] turned out to be 230 min. For the same molecule, the T1/2 with Rattus norvegicus [10] was 84 min. In series [1], half-maximal inhibition (IC50) was put at 1.8 nM. For the same molecule, the C0 in series [8] is 41.4 µM.

For `O=C(O)C(CCN1C(=O)c2ccccc2C1=O)S(=O)(=O)c1ccc(-c2nc3ccc(F)cc3[nH]2)cc1` (centres undefined), the IC50 in series [1] is 0.7 nM; against Interstitial collagenase, greater than 1000 nM; at Collagenase 3 it was 0.8 nM; on Stromelysin-1, 34 nM. In turn, `Cc1ccc(C#Cc2ccc(SC(CCN3C(=O)c4ccccc4C3=O)C(=O)O)cc2)cc1` (centres undefined) yielded an IC50 in series [1] of 33 nM. Turning to `O=C(O)C(CCN1C(=O)c2ccccc2C1=O)S(=O)(=O)c1ccc(Oc2ccc(OC(F)(F)F)cc2)cc1` (centres undefined), it took 19 nM to reach half-maximal inhibition in [1] (IC50). On the same count and under the same terms, with `CSc1ccc(-c2ccc(S(=O)(=O)C(CCN3C(=O)c4ccccc4C3=O)C(=O)O)cc2)cc1` (centres undefined) the figure was 0.74 nM. For the molecule `O=C(O)C(CCN1C(=O)c2ccccc2C1=O)Sc1ccc(C#Cc2ccc(OC(F)(F)F)cc2)cc1` (centres undefined), inhibition in series [1] was half-maximal at 1.3 nM (IC50). On to `O=C(O)C(CCN1C(=O)c2ccccc2C1=O)Sc1ccc(C#Cc2ccc(Cl)cc2)cc1` (centres undefined), for which the midpoint of inhibition in [1], the IC50, lay at 1.9 nM. For `O=C(O)C(CCSc1ccccc1)S(=O)(=O)c1ccc(-c2ccc(Cl)cc2)cc1` (centres undefined), the IC50 in series [1] is 295 nM; in [2] it was greater than 10000 nM. `O=C(O)C(CCN1C(=O)c2ccccc2C1=O)S(=O)(=O)c1ccc(-c2ccc(F)cc2)cc1` (centres undefined): inhibition in [1] was half-maximal at 6.5 nM (IC50). Regarding `O=C(O)C(CCN1Cc2ccccc2C1=O)S(=O)(=O)c1ccc(-c2ccc(Cl)cc2)cc1` (centres undefined), the IC50 was 8.6 nM in series [1] and 96.5 nM in series [2]. Molecule `Cc1ccc(C#Cc2ccc([S+]([O-])C(CCN3C(=O)c4ccccc4C3=O)C(=O)O)cc2)cc1` (centres undefined) registered an IC50 in series [1] of 1.5 nM. The same measure, in the same setting: then `Cc1ccc(-c2ccc(S(=O)(=O)C(CCN3C(=O)c4ccccc4C3=O)C(=O)O)cc2)cc1` (centres undefined), with 1.2 nM. In the case of `CC(C)c1ccc(C#Cc2ccc(SC(CCN3C(=O)c4ccccc4C3=O)C(=O)O)cc2)cc1` (centres undefined), in [1], inhibition was half-maximal at 1.7 nM (IC50). Same read-out and setting: then `CCCc1ccc(C#Cc2ccc(SC(CCN3C(=O)c4ccccc4C3=O)C(=O)O)cc2)cc1` (centres undefined), with 1.1 nM. Regarding `CC(CCN1Cc2ccccc2C1)(C(=O)O)S(=O)(=O)c1ccc(-c2ccc(Cl)cc2)cc1` (centres undefined), the IC50 in [1] was 3060 nM; in series [2], greater than 10000 nM. `CCCCc1ccc(C#Cc2ccc(SC(CCN3C(=O)c4ccccc4C3=O)C(=O)O)cc2)cc1` (centres undefined) displayed an IC50 in [1] of 2.3 nM.

`N#Cc1ccc(N2CCN(c3ccc(S(=O)(=O)C(CCN4C(=O)c5ccccc5C4=O)C(=O)O)cc3)CC2)cc1` (centres undefined): it took 6.8 nM to reach half-maximal inhibition in series [1] (IC50). Compared with the last molecule, the IC50 is about 3-fold higher. On to `O=C(O)C(CCN1C(=O)c2ccccc2C1=O)S(=O)(=O)c1ccc(N2CC=C(c3ccc(Cl)cc3)CC2)cc1` (centres undefined), for which the IC50 in series [1] stood at 12 nM. This IC50 lies about 1.8-fold higher than the previous one. As for `Cc1ccc(C#Cc2ccc(S(=O)(=O)C(CCN3C(=O)c4ccccc4C3=O)C(=O)O)cc2)cc1` (centres undefined), the IC50 was 0.7 nM in series [1], greater than 1000 nM against Interstitial collagenase, 1.4 nM against Collagenase 3 and 28 nM against Stromelysin-1. The molecule `CC(CCN1C(=O)c2ccccc2C1=O)(C(=O)O)S(=O)(=O)c1ccc(-c2ccc(Cl)cc2)cc1` (centres undefined) came in with an IC50 in [1] of 52 nM. Regarding `CCCC(C(=O)O)S(=O)(=O)c1ccc(-c2ccc(Cl)cc2)cc1` (centres undefined), the IC50 was 792 nM in series [1] and 10000 nM in [2]. `N#Cc1ccc(-c2ccc(S(=O)(=O)C(CCN3C(=O)c4ccccc4C3=O)C(=O)O)cc2)cc1` (centres undefined) gave an IC50 in [1] of 3 nM. For the molecule `O=C(O)C(CCCN1C(=O)c2ccccc2C1=O)S(=O)(=O)c1ccc(-c2ccc(Cl)cc2)cc1` (centres undefined), the figures for the IC50 in series [1] and in series [2] were 145 nM and 2120 nM, respectively.

For orientation: IC50 means the point on the concentration scale where inhibition reaches its midpoint. High values mean a need for much substance, low ones inhibition by little substance. As a reminder, the AUC is the area under the concentration-time curve, a measure of exposure. One may read the half-life as the time in which the quantity being followed falls by half. For orientation: clearance means the volume of plasma or blood freed of the substance per unit of time. Low values mean a low capacity for elimination, high ones a high capacity for elimination. As a reminder, the Vss is the apparent volume that relates the amount in the body to the concentration in plasma or blood.

The values are drawn from ChEMBL document CHEMBL1148518, “Synthesis and SAR of alpha-sulfonylcarboxylic acids as potent matrix metalloproteinase inhibitors” (Bioorg Med Chem Lett, 2006).
